From article PMC7180572, “5-Alkylamino-N-phenylpyrazine-2-carboxamides: Design, Preparation, and Antimycobacterial Evaluation” (Molecules, 2020)
Converted amounts (≈) assume the structure as drawn. Where two headings read alike, the source gives them in different places.

Key:
[1] = test system: Mycobacterium tuberculosis H37Ra ITM-M006710 (ATCC 9431); assay: Microdilution broth, modified Microplate Alamar Blue Assay, whole cell growth inhibition; assay type: cell-based; settings: Mycobacterium tuberculosis, read-out: MIC Mtb H37Ra
[2] = test system: Mycobacterium aurum DSM 43999 (ATCC 23366); assay: as above; assay type: cell-based; settings: Mycolicibacterium aurum; in vitro, Middlebrook 7H9 broth, resazurin; read-out: MIC Mycobacterium aurum
[3] = test system: Mycobacterium smegmatis DSM 43465 (ATCC 607); assay: as above; assay type: cell-based; settings: Mycolicibacterium smegmatis; in vitro, Middlebrook 7H9 broth, resazurin; read-out: MIC Mycobacterium smegmatis
HepG2 cells = assay: HepG2 cytotoxicity, CellTiter 96 (MTS) assay; assay type: cell-based, human; settings: for IC50: Homo sapiens, HepG2, 24 h incubation, > means higher concentration not reproducible due to precipitation, read-out: HepG2 IC50
[4] = test system: Candida albicans ATCC 24433, CCM 8320; assay: Antifungal microdilution broth method (EUCAST); assay type: cell-based; settings: 48 h, standards, read-out: MIC against Candida albicans
[5] = test system: Candida krusei ATCC 6258, CCM 8271; assay: Antifungal microdilution broth method (EUCAST); assay type: cell-based; settings: Pichia kudriavzevii; 48 h, standards; read-out: MIC against C. krusei
[6] = test system: Candida parapsilosis ATCC 22019, CCM 8260; assay: Antifungal microdilution broth method (EUCAST); assay type: cell-based; settings: Lodderomyces parapsilosis; 48 h, standards; read-out: MIC against C. parapsilosis
[7] = test system: Candida tropicalis ATCC 750, CCM 8264; assay: Antifungal microdilution broth method (EUCAST); assay type: cell-based; settings: 48 h, standards, read-out: MIC against C. tropicalis
[8] = test system: Aspergillus fumigatus ATCC 204305; assay: Antifungal microdilution broth method (EUCAST); assay type: cell-based; settings: ATCC204305, 48 h, standards, read-out: MIC against Aspergillus fumigatus
[9] = test system: Aspergillus flavus CCM 8363; assay: Antifungal microdilution broth method (EUCAST); assay type: cell-based; settings: CCM8363, 48 h, standards, read-out: MIC against Aspergillus flavus
[10] = test system: Absidia corymbifera CCM 8077 (Lichtheimia corymbifera); assay: Antifungal microdilution broth method (EUCAST); assay type: cell-based; settings: CCM8077, 48 h, standards, read-out: MIC against Lichtheimia corymbifera
[11] = test system: Trichophyton interdigitale ATCC 9533, CCM 8377; assay: Antifungal microdilution broth method (EUCAST); assay type: cell-based; settings: 72 h, standards, read-out: MIC against Trichophyton interdigitale
[12] = in vitro, Middlebrook 7H9 broth, resazurin

Structure (SMILES) | MIC [1, 12] | MIC [2] | MIC [3] | IC50 (HepG2 cells) | further results
O=C(Nc1ccc(O)cc1)c1cnc(Cl)cn1 [Compound 3, 5-Chloro-N-(4-hydroxyphenyl)pyrazine-2-carboxamide] | 62.5 µg/mL (≈ 250 µM) | ≥ 250 µg/mL | ≥ 250 µg/mL | 350 µM | SI, selectivity index (HepG2 cells; IC50 (HepG2)/MIC against Mtb H37Ra (in µM)): 1.40
Cc1ccc(NC(=O)c2cnc(Cl)cn2)cc1 [Compound 4, 5-Chloro-N-(p-tolyl)pyrazine-2-carboxamide] | ≥ 500 µg/mL | ≥ 500 µg/mL | ≥ 500 µg/mL | > 50 µM | 
CCc1ccc(NC(=O)c2cnc(Cl)cn2)cc1 [Compound 5, 5-Chloro-N-(4-ethylphenyl)pyrazine-2-carboxamide] |  | ≥ 500 µg/mL | ≥ 500 µg/mL | > 50 µM | MIC [1]: 250 µg/mL (≈ 955 µM)
CCCNc1cnc(C(=O)Nc2ccc(Cl)cc2O)cn1 [Compound 6a, N-(4-chloro-2-hydroxyphenyl)-5-(propylamino)pyrazine-2-carboxamide] | ≥ 500 µg/mL | ≥ 500 µg/mL | 3.91 µg/mL (≈ 12.7 µM) |  | melting point: 248.9 to 250 °C
CCCCNc1cnc(C(=O)Nc2ccc(Cl)cc2O)cn1 [Compound 6b, 5-(Butylamino)pyrazine-N-(4-chloro-2-hydroxyphenyl)-2-carboxamide] | ≥ 500 µg/mL | ≥ 500 µg/mL | 3.91 µg/mL (≈ 12.2 µM) | > 50 µM | melting point: 221.8 to 225.4 °C
CO[C@H]1/C=C/O[C@@]2(C)Oc3c(C)c(O)c4c(O)c(c(/C=N/N5CCN(C)CC5)c(O)c4c3C2=O)NC(=O)/C(C)=C\C=C\[C@H](C)[C@H](O)[C@@H](C)[C@@H](O)[C@@H](C)[C@H](OC(C)=O)[C@@H]1C [RIF, rifampicin, reference compound] | 0.0039 to 0.0078 µg/mL (≈ 0.00474 to 0.00948 µM) | 0.39 to 0.78 µg/mL (≈ 0.474 to 0.948 µM) | 6.25 to 12.5 µg/mL (≈ 7.59 to 15.2 µM) |  | 
C[C@@H](c1ncncc1F)[C@](O)(Cn1cncn1)c1ccc(F)cc1F [voriconazole, reference compound] |  |  |  |  | MIC [4]: > 16 µg/mL; MIC [5]: 0.5 µg/mL (≈ 1.43 µM); MIC [6]: 8 µg/mL (≈ 22.9 µM); MIC [7]: > 16 µg/mL; MIC [8]: 1 µg/mL (≈ 2.86 µM); MIC [9]: > 16 µg/mL; MIC [10]: > 16 µg/mL; MIC [11]: > 16 µg/mL
